# According to patent US5585367A (priority 1990, dated 1996):
# Like-named read-outs stand apart in the source and are kept apart here.
# Key:
# [1] = test system: genes "GAG", "LTR" and "ENV" of the HIV-1 provirus; assay: Integration of viral genome into chromosomic DNA of Supt-1 cells (PCR); format: cell-based; details: HIV-1 treated with 1/100 dilution
# Procedure: By means of a genetic amplification through a thermostable polymerase, the presence of genes "GAG", "LTR" and "ENV" of the HIV-1 provirus is evidenced. This method is called P.C.R. Polymerase chain Reaction) (Chin-Yih Ou et al., Sciences 239, 295-297, 1988).
# Said method is applied for detecting HIV-1 provirus in the genome of Supt-1 cells inoculated with HIV-1 virus incubated with […] (dilution 1/100), as described in Example 8
# Amplified oligonucleotides, UV visible by means of ethidium bromide appear only in the tubes corresponding to an inoculation with HIV-1 viruses which were not treated with the active substance.
# One proceeds as in Example 11(c). The search of genes "GAG", "LTR" and "ENV" has been made in cellular cultures inoculated with a virus incubated for 15 minutes with the active substance. This search is appeared as being negative, and thus it can be concluded that 1.1'-azobisformamide at the dosage of 35 μgr/ml protects the cells against infection by HIV-1.
# Examples 10c and 11c disclose a more accurate method than the ELISA test for examining whether the inoculated cells contain HIV-1 at the end of the assay, i.e., the PCR-Method.
# [2] = in vitro; details: human, supt-1 cells
# [3] = in vitro; details: human, molt-3 cells, % of dead cells
# [4] = test system: human blood cell glutathione; details: N. S. KOSOWER et al. (1969); cited from earlier work
# [5] = test system: lymphocyte cellular lines; assay: Toxicity for human lymphocyte cellular lines; format: cell-based; details: even after 24 hours
# [6] = test system: Molt-3 cells infected by HTLVIII-B
# [7] = test system: HIV-1; format: cell-based
# [8] = test system: Supt-1 cells
# [9] = test system: HIV-1; format: cell-based; remark: listed apart in the source
# [10] = test system: HIV strain of the patient; assay: Resistance of the patient's HIV strain (course of treatment; gene sequencing of viral RNA); details: for genetic resistance of the patient's strain: mutations in codons 67, 70, 184, 215 and 219; for resistance, concomitant medication: patient of Example 27, DDI, then DDI and DDC
# [11] = test system: wild HIV-1 strains; assay: Phenotypic resistance of wild HIV-1 strains; format: cell-based; details: strains marked * (Wild A, B, C, F, G)
smiles,measurement,setting,value
CN(C)C(=O)N=NC(=O)N(C)C [1.1'-azobisdimethylformamide],HIV-1 provirus within Supt-1 cells,[1],totally absent
same,cytotoxicity at 0 h,[2],26%
same,cytotoxicity at 1 h,[2],24%
same,cytotoxicity at 5 h,[2],28%
same,cytotoxicity at 1 min,[3],12.7%
same,cytotoxicity at 10 min,[3],14%
same,cytotoxicity at 0.5 h,[3],17.1%
same,intracellular oxidising action on human blood cell glutathione,[4],intracellular oxidising action on human blood cell glutathione
same,toxicity for human lymphocyte cellular lines,[5],no toxicity
same,mortality of the infected cells,"[6]; after 30 minutes, even at dilution 1/3000",mortality of the infected cells is doubled
same,Number of dead cells,"[6]; dilution 1/500, 1 min",9
same,Number of living cells,"[6]; dilution 1/500, 1 min",62
same,Number of dead cells,"[6]; dilution 1/500, 10 min",11
same,Number of living cells,"[6]; dilution 1/500, 10 min",67
same,Number of dead cells,"[6]; dilution 1/500, 30 min",12
same,Number of living cells,"[6]; dilution 1/500, 30 min",58
same,Number of dead cells,"[6]; dilution 1/1500, 30 min",15
same,Number of living cells,"[6]; dilution 1/1500, 30 min",70
same,Number of dead cells,"[6]; dilution 1/3000, 30 min",12
same,Number of living cells,"[6]; dilution 1/3000, 30 min",58
same,% of dead cells,"[6]; human, molt-3 cells, 0.5 h",17.6%
same,cytopathogenic effect,[7],no cytopathogenic effect was observed
same,cellular viability of Supt-1 cells,[8],does not decrease the cellular viability
same,toxicity against sound Supt-1 cells,[8],no toxicity against sound Supt-1 cells
same,toxicity for human Supt-1 cells,[8],no toxicity
same,effectiveness up to the 25th day,[9],effectiveness of this active substance is maintained
same,infection of sound Supt-1 cells by treated HIV,[9],is not able to infect the sound Supt-1 cells
same,protection of Supt-1 cells,[9],has this effect
Nc1ccn([C@@H]2CS[C@H](CO)O2)c(=O)n1 [3TC],genetic resistance of the patient's strain,[10],genetically resistant
"Cc1cn([C@H]2C[C@H](N=[N+]=[N-])[C@@H](CO)O2)c(=O)[nH]c1=O [AZT, 3'-azido-3'-desoxythymidine]",phenotypic resistance to AZT,[11],Phenotypically resistant
same,genetic resistance of the patient's strain,[10],genetically resistant
Nc1ccn([C@H]2CC[C@@H](CO)O2)c(=O)n1 [DDC],genetic resistance of the patient's strain,[10],genetically resistant
same,"resistance, concomitant medication",[10],stopped because of resistance
O=c1[nH]cnc2c1ncn2[C@H]1CC[C@@H](CO)O1 [DDI],genetic resistance of the patient's strain,[10],genetically resistant
same,"resistance, concomitant medication",[10],stopped because of resistance
